Active and inactive are the calls of the source. No cut-off for these calls is given here. Where a SMILES comes first, the peptide text is derived from it. Bridges are numbered along the chain shown (N, C = ends).
What was measured:
Mus musculus [1] = species on record: Mus musculus; assay: Antiasthmatic activity in OVA-immunized BALB/c mouse chronic asthma model assessed as reduction of 8-isoprostane level in serum at 10 uM treated intranasally by immunoassay; assay type: functional, organism-based
Mus musculus [2] = species on record: Mus musculus; assay: Antiasthmatic activity in OVA-immunized BALB/c mouse chronic asthma model assessed as plasma histamine release at 10 uM treated intranasally after 5 mins by immunoassay; assay type: functional, organism-based
Mus musculus [3] = species on record: Mus musculus; assay: Antiasthmatic activity in OVA-immunized BALB/c mouse chronic asthma model assessed as plasma histamine release at 0.1 uM treated intranasally after 5 mins by immunoassay; assay type: functional, organism-based
Mus musculus [4] = species on record: Mus musculus; assay: Antiasthmatic activity in OVA-immunized BALB/c mouse chronic asthma model assessed as inhibition of tryptase-like protease activity in BAL fluid using tosyl-gly […]-lys-pNA as substrate at 100 nM after 1 hr relative to control; assay type: functional
Mus musculus [5] = species on record: Mus musculus; assay: Antiasthmatic activity in OVA-immunized BALB/c mouse chronic asthma model assessed as inhibition of tryptase-like protease activity in BAL fluid using tosyl-gly […]-lys-pNA as substrate after 1 hr; assay type: functional, organism-based
Mus musculus [6] = species on record: Mus musculus; assay: Antiasthmatic activity in OVA-immunized BALB/c mouse chronic asthma model assessed as inhibition of airway remodeling at 100 nM treated intranasally on days 15, 16, 22, and 23 at 30 mins before OVA challenge measured on day 71; assay type: functional, organism-based
Mus musculus [7] = species on record: Mus musculus; assay: Antiasthmatic activity in OVA-immunized BALB/c mouse chronic asthma model assessed as reduction of area of proliferating smooth muscle cell at 100 nM treated intranasally on days 15, 16, 22, and 23 at 30 mins before OVA challenge measured on day 71 by PCNA+-staining; assay type: functional, organism-based
Mus musculus [8] = species on record: Mus musculus; assay: Antiasthmatic activity in OVA-immunized BALB/c mouse chronic asthma model assessed as reduction of decrease in smooth muscle area at 100 nM treated intranasally on days 15, 16, 22, and 23 at 30 mins before OVA challenge measured on day 71 by alpha-SMA-staining; assay type: functional, organism-based; settings: Muscle tissue
Mus musculus [9] = species on record: Mus musculus; assay: Antiasthmatic activity in OVA-immunized BALB/c mouse chronic asthma model assessed as reduction of collagen and old fibrin at 100 nM treated intranasally on days 15, 16, 22, and 23 at 30 mins before OVA challenge measured on day 71 by martius scarlet blue-staining; assay type: functional, organism-based
Mus musculus [10] = species on record: Mus musculus; assay: Antiasthmatic activity in OVA-immunized BALB/c mouse chronic asthma model assessed as reduction of methacholine-induced airway hyperreactivity at 100 nM treated intranasally on days 15, 16, 22, and 23 at 30 mins before OVA challenge measured on day 71; assay type: functional, organism-based
Mus musculus [11] = species on record: Mus musculus; assay: Antiasthmatic activity in OVA-immunized BALB/c mouse chronic asthma model assessed as reduction of airway inflammation at 100 nM treated intranasally on days 15, 16, 22, and 23 at 30 mins before OVA challenge by hematoxylin and eosin staining measured on day 71; assay type: functional, organism-based
Mus musculus [12] = species on record: Mus musculus; assay: Antiasthmatic activity in lymphnode cells isolated from 25 days OVA-immunized BALB/c mouse acute asthma model assessed as reduction of IFN-gamma production at 100 nM measured after 3 days re-stimulation by ELISA; assay type: functional, cell-based
Splenocyte [13] = assay: Antiasthmatic activity in splenocytes isolated from 25 days OVA-immunized BALB/c mouse acute asthma model assessed as reduction of IFN-gamma production at 100 nM measured after 3 days re-stimulation by ELISA; assay type: functional, cell-based
Mus musculus [14] = species on record: Mus musculus; assay: Antiasthmatic activity in lymphnode cells isolated from 25 days OVA-immunized BALB/c mouse acute asthma model assessed as reduction of IL-13 and IL-5 production at 100 nM measured after 3 days re-stimulation by ELISA; assay type: functional, cell-based
Splenocyte [15] = assay: Antiasthmatic activity in splenocytes isolated from 25 days OVA-immunized BALB/c mouse acute asthma model assessed as reduction of IL-13 and IL-5 production at 100 nM measured after 3 days re-stimulation by ELISA; assay type: functional, cell-based
Mus musculus [16] = species on record: Mus musculus; assay: Antiasthmatic activity in OVA-immunized BALB/c mouse acute asthma model assessed as reduction of methacholine-induced lung resistance at 100 nM treated intranasally on days 15, 16, 22, and 23 at 30 mins before OVA challenge; assay type: functional, organism-based
Mus musculus [17] = species on record: Mus musculus; assay: Antiasthmatic activity in OVA-immunized BALB/c mouse acute asthma model assessed as reduction of methacholine-induced airway hyperreactivity at 100 nM treated intranasally on days 15, 16, 22, and 23 at 30 mins before OVA challenge; assay type: functional, organism-based
Mus musculus [18] = species on record: Mus musculus; assay: Antiasthmatic activity in OVA-immunized BALB/c mouse acute asthma model assessed as reduction of IgG2a level in serum at 100 nM treated intranasally on days 15, 16, 22, and 23 at 30 mins before OVA challenge; assay type: functional, organism-based
Mus musculus [19] = species on record: Mus musculus; assay: Antiasthmatic activity in OVA-immunized BALB/c mouse acute asthma model assessed as reduction of IgE level in serum at 100 nM treated intranasally on days 15, 16, 22, and 23 at 30 mins before OVA challenge; assay type: functional, organism-based
Mus musculus [20] = species on record: Mus musculus; assay: Antiasthmatic activity in OVA-immunized BALB/c mouse acute asthma model assessed as reduction of mucus production in PAS-stained lung section at 100 nM treated intranasally on days 15, 16, 22, and 23 at 30 mins before OVA challenge; assay type: functional, organism-based
Mus musculus [21] = species on record: Mus musculus; assay: Antiasthmatic activity in OVA-immunized BALB/c mouse acute asthma model assessed as reduction of airway inflammation at 100 nM treated intranasally on days 15, 16, 22, and 23 at 30 mins before OVA challenge by hematoxylin and eosin staining; assay type: functional, organism-based
Mus musculus [22] = species on record: Mus musculus; assay: Antiasthmatic activity in OVA-immunized BALB/c mouse acute asthma model assessed as decrease in number of eosinophils in BAL fluid at 100 nM treated intranasally on days 15, 16, 22, and 23 at 30 mins before OVA challenge; assay type: functional, organism-based
[23] = Inhibition of bovine trypsin using benzoyl-L-arginine p-nitroanilide as substrate after 5 to 60 mins; design: species or system Bos taurus
Mus musculus [24] = species on record: Mus musculus; assay: Antiasthmatic activity in OVA-immunized BALB/c mouse chronic asthma model assessed as reduction of IgE level in serum at 100 nM treated intranasally on days 15, 16, 22, and 23 at 30 mins before OVA challenge measured on day 71; assay type: functional, organism-based
Mus musculus [25] = species on record: Mus musculus; assay: Antiasthmatic activity in OVA-immunized BALB/c mouse chronic asthma model assessed as reduction of mMCP-1 level in serum at 100 nM treated intranasally at 30 mins before OVA challenge measured after 30 mins by ELISA; assay type: functional, organism-based
Mus musculus [26] = species on record: Mus musculus; assay: Antiasthmatic activity in OVA-immunized BALB/c mouse chronic asthma model assessed as inhibition of airway inflammation at 100 nM treated intranasally on days 15, 16, 22, and 23 at 30 mins before OVA challenge measured on day 71; assay type: functional, organism-based
Mus musculus [27] = species on record: Mus musculus; assay: Antiasthmatic activity in OVA-immunized BALB/c mouse chronic asthma model assessed as reduction of total lung collagen level at 100 nM treated intranasally on days 15, 16, 22, and 23 at 30 mins before OVA challenge measured on day 71 by MSB-staining; assay type: functional, organism-based
Mus musculus [28] = species on record: Mus musculus; assay: Antiasthmatic activity in OVA-immunized BALB/c mouse chronic asthma model assessed as decrease in number of eosinophils in BAL fluid at 100 nM treated intranasally on days 15, 16, 22, and 23 at 30 mins before OVA challenge measured on day 71; assay type: functional, organism-based

Row | inhibition (Mus musculus [5]) | Ki [23] | Structure (SMILES) | Activity (Mus musculus [1]) | Activity (Mus musculus [3]) | inhibition (INH) (Mus musculus [4]) | Activity (Mus musculus [6]) | Activity (Mus musculus [7]) | Activity (Mus musculus [8]) | Activity (Mus musculus [9]) | Activity (Mus musculus [10]) | Activity (Mus musculus [11]) | Activity (Mus musculus [14]) | Activity (Splenocyte [15]) | Activity (Mus musculus [16]) | Activity (Mus musculus [17]) | Activity (Mus musculus [18]) | Activity (Mus musculus [19]) | Activity (Mus musculus [20]) | Activity (Mus musculus [21]) | Activity (Mus musculus [22]) | further results
1 | Dose-dependent effect | 110 nM | CC(C)C[C@H](N)C(=O)N[C@H](C(=O)N[C@@H](CCCNC(=N)N)C(=O)NCC(=O)N[C@H]1CSSC[C@@H](C(=O)N[C@@H](Cc2ccccc2)C(=O)N[C@H](C(=O)N[C@@H](CCCNC(=N)N)C(=O)O)C(C)C)NC(=O)[C@@H]2CCCN2C(=O)[C@H](CCCCN)NC(=O)[C@@H]2CCCN2C(=O)[C@@H]2CCCN2C(=O)[C@H](Cc2ccc(O)cc2)NC(=O)[C@H](CO)NC(=O)[C@H](CCCCN)NC(=O)[C@H]([C@@H](C)O)NC(=O)[C@H](Cc2c[nH]c3ccccc23)NC1=O)C(C)C (H-LVRGCWTKSYPPKPCFVR-OH; disulfide 5-15) | Active | inactive | 60% | Active | Active | Active | Active | Active | Active | Active | Active | Active | Active | inactive | Active | Active | Active | Active | Activity (Mus musculus [2]): Active; Activity (Mus musculus [12]): inactive; Activity (Splenocyte [13]): Active; Activity (Mus musculus [24]): Active; Activity (Mus musculus [25]): Active; Activity (Mus musculus [26]): Active; Activity (Mus musculus [27]): Active; Activity (Mus musculus [28]): Active
2 | Dose-dependent effect | 8 nM | CC[C@H](C)[C@@H]1NC(=O)[C@@H]2CCCN2C(=O)[C@@H]2CCCN2C(=O)[C@H]([C@@H](C)CC)NC(=O)[C@H](CO)NC(=O)[C@H](CCCCN)NC(=O)[C@H]([C@@H](C)O)NC(=O)[C@@H]2CSSC[C@H](NC1=O)C(=O)N[C@@H](Cc1ccccc1)C(=O)N1CCC[C@H]1C(=O)N[C@@H](CC(=O)O)C(=O)NCC(=O)N[C@@H](CCCNC(=N)N)C(=O)N2 | inactive | inactive | 60% | Active | Active | Active | Active | Active | Active | Active | Active | Active | Active | inactive | Active | Active | Active | Active | Activity (Mus musculus [24]): Active; Activity (Mus musculus [25]): Active; Activity (Mus musculus [26]): Active; Activity (Mus musculus [27]): Active; Activity (Mus musculus [28]): Active

Reference: ChEMBL document CHEMBL2440100, “Therapeutic potential of the peptide leucine arginine as a new nonplant bowman-birk-like serine protease inhibitor” (J Med Chem, 2013)
